These results are taken from patent US8071558B2, “Application of D-psicose to suppression of abnormal circadian increase in blood glucose level” (Rare Sugar Production Technical Research Laboratories, LLC., priority 2005, dated 2011).

One series relates to liver. The following applies: in vivo; cited from earlier work.
The next series deals with maltase. The series is described as follows: Maltose administration experiment (inhibition of maltase in vivo), plasma glucose. Set-up: species or system rat. The following applies: rats; for Plasma glucose level, 0 min: before maltose 2 g/kg + test sugar 200 mg/kg; for action to suppress the increase of blood glucose level: given simultaneously with maltose (experiment 2); for Plasma glucose level, 30 min / Plasma glucose level, 60 min / Plasma glucose level, 90 min / Plasma glucose level, 120 min / ΔAUC of plasma glucose level: maltose 2 g/kg + test sugar 200 mg/kg. The method, then:
(§1) Thirty-six male Wistar rats of age 6 months are divided into 6 groups. The following sugars were given to the rats in the individual groups after 12-hour fasting. Before the administration and 30, 60, 90, 120 and 180 minutes after the administration, blood is drawn from the tail vein, to assay plasma glucose and insulin concentration.
2. Maltose 2 g/kg+L-arabinose 200 mg/kg (MA)
3. Maltose 2 g/kg+D-xylose 200 mg/kg (MX)
4. Maltose 2 g/kg+D-fructose 200 mg/kg (MF)
5. Maltose 2 g/kg+D-psicose 200 mg/kg (MP)
6. Maltose 2 g/kg+(fructose 150 mg/kg+psicose 50 mg/kg) (MFP)
(§2) Before the administration and 30, 60, 90, 120 and 180 minutes after the administration, plasma glucose level was assayed. The plasma glucose level 180 minutes later was used to calculate the area under the curve of plasma glucose level (ΔAUC).

The subject of another series is Male Wistar rats. Nature of the series: Soluble starch administration experiment, plasma glucose. It counts as in vivo, rat. Conditions: for Plasma glucose level, 0 min: before soluble starch 2 g/kg + test sugar 200 mg/kg; for action to suppress the increase of blood glucose level: given simultaneously with soluble starch (experiment 3); for Plasma glucose level, 30 min / Plasma glucose level, 60 min / Plasma glucose level, 90 min / Plasma glucose level, 120 min / ΔAUC of plasma glucose level: soluble starch 2 g/kg + test sugar 200 mg/kg. The method, then:
as §1
1. Soluble starch 2 g/kg (SS)
2. Soluble starch 2 g/kg+L-arabinose 200 mg/kg (SSA)
3. Soluble starch 2 g/kg+D-xylose 200 mg/kg (SSX)
4. Soluble starch 2 g/kg+D-fructose 200 mg/kg (SSF)
5. Soluble starch 2 g/kg+D-psicose 200 mg/kg (SSP)
6. Soluble starch 2 g/kg+(fructose 150 mg/kg+psicose 50 mg/kg) (SSFP)
as §2

In another series the target is T1, sucrase (Rattus norvegicus, UniProt P23739).
T1 construct: from tissue; host or cells: small intestine of live male Wistar rats (oral sugar load)
The series is described as follows: Sucrose administration experiment (inhibition of sucrase in vivo), plasma glucose. Conditions: rats; for Plasma glucose level, 0 min: before sucrose 2 g/kg + test sugar 200 mg/kg; for Plasma glucose level, 30 min / Plasma glucose level, 60 min / Plasma glucose level, 90 min / Plasma glucose level, 120 min / ΔAUC of plasma glucose level: sucrose 2 g/kg + test sugar 200 mg/kg.

T1 sequence (P23739 whole entry): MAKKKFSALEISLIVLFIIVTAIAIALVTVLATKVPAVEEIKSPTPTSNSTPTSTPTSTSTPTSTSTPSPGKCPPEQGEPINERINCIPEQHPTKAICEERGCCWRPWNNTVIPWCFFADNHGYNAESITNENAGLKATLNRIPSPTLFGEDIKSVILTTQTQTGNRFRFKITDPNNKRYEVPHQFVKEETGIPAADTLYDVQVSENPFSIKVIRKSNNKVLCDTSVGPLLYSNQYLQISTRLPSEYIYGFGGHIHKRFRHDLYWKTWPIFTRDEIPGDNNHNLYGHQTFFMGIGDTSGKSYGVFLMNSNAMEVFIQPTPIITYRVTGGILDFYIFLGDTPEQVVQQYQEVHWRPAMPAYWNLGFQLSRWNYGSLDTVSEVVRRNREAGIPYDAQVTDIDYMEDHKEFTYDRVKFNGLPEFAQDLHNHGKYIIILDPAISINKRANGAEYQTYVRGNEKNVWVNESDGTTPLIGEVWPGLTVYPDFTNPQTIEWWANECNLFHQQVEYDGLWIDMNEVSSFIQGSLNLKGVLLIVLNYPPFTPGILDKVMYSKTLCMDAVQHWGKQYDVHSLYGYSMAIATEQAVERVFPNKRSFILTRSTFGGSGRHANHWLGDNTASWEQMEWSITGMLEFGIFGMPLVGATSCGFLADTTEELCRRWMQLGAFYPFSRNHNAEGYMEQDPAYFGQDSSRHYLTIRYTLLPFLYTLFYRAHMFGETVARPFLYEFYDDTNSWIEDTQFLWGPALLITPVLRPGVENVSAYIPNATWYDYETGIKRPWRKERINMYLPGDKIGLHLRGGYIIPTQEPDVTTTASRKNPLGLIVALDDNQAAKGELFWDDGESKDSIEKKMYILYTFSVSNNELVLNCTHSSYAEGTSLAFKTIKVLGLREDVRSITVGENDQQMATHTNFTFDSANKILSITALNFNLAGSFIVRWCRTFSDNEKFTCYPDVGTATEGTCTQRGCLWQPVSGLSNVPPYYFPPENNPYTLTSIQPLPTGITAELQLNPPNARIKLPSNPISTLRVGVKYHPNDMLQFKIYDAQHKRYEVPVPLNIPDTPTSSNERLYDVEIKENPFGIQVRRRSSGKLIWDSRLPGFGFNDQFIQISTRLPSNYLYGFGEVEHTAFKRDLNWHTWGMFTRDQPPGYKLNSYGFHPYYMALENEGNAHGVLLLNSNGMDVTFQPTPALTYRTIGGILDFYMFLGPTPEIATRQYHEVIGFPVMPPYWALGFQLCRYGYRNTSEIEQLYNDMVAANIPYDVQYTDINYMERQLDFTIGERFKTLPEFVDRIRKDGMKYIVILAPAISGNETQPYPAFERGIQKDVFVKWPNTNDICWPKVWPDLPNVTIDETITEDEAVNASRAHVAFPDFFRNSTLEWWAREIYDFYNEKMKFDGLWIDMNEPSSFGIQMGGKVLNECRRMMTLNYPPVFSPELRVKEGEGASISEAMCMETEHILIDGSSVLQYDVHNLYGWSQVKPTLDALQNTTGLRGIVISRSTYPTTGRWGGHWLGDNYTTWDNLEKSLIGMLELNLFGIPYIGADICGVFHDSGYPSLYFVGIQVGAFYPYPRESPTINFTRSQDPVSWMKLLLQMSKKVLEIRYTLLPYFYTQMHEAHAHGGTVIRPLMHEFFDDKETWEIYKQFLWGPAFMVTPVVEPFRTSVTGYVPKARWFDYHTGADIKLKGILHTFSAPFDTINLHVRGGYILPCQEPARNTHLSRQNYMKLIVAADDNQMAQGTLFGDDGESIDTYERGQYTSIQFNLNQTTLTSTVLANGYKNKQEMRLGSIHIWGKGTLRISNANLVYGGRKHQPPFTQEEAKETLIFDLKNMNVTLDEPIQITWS
Experimental for sucrase: Sucrose 2 g/kg+L-arabinose 200 mg/kg (SA)
Sucrose 2 g/kg+D-xylose 200 mg/kg (SX)
Sucrose 2 g/kg+D-fructose 200 mg/kg (SF)
Sucrose 2 g/kg+D-psicose 200 mg/kg (SP)
Sucrose 2 g/kg+(fructose 150 mg/kg+psicose 50 mg/kg) (SFP)

As to `O=C(CO)[C@@H](O)[C@@H](O)[C@H](O)CO` [D-tagatose], the “histological change of liver” value with liver is “never involved any histological change of liver”.
On to `O=C[C@H](O)[C@@H](O)[C@H](O)CO` [D-xylose], for which, in the series with maltase, the “Plasma glucose level, 0 min” value was found to be 86 ± 8 mg/dL; the “action to suppress the increase of blood glucose level” value (“action to suppress the increase” for short) was “scarcely suppressed”; the “Plasma glucose level, 30 min” value turned out to be 146 ± 14 mg/dL; the “Plasma glucose level, 60 min” value is 172 ± 12 a mg/dl. In the series on maltase, the “Plasma glucose level, 90 min” value came out at 166 ± 20 mg/dL; the “Plasma glucose level, 120 min” value was found to be 150 ± 19 mg/dL; the “ΔAUC of plasma glucose level” value worked out at 7765 min^− mg/dl. Besides, in the series on Male Wistar rats, the “Plasma glucose level, 0 min” value came to 99 ± 10 mg/dL; the “action to suppress the increase” value is “scarcely suppressed”; the “Plasma glucose level, 30 min” value came out at 141 ± 8 mg/dL; the “Plasma glucose level, 60 min” value is 135 ± 12 mg/dL. In the series on Male Wistar rats, the “Plasma glucose level, 90 min” value was determined as 138 ± 16 mg/dL; the “Plasma glucose level, 120 min” value worked out at 131 ± 12 mg/dL; the “ΔAUC of plasma glucose level” value turned out to be 4040 min^− mg/dl. In addition, on sucrase, the “Plasma glucose level, 0 min” value was found to be 102 mg/dL; the “Plasma glucose level, 30 min” value amounted to 123 ± 11 b mg/dl; the “Plasma glucose level, 60 min” value was 126 ± 12 b mg/dl; the “Plasma glucose level, 90 min” value amounted to 130 ± 13 b mg/dl. At sucrase, the “Plasma glucose level, 120 min” value came out at 137 ± 16 mg/dL and the “ΔAUC of plasma glucose level” value worked out at 2646 min^− mg/dl.
For the compound `O=C[C@H](O)[C@@H](O)[C@@H](O)CO` [L-arabinose], in the series with maltase, the “Plasma glucose level, 0 min” value amounted to 89 ± 7 mg/dL; the “action to suppress the increase” value is “scarcely suppressed”; the “Plasma glucose level, 30 min” value was determined as 139 ± 16 mg/dL; the “Plasma glucose level, 60 min” value amounted to 157 ± 22 ab mg/dl. In addition, in the series with maltase, the “Plasma glucose level, 90 min” value was found to be 149 ± 21 mg/dL; the “Plasma glucose level, 120 min” value was found to be 138 ± 22 mg/dL; the “ΔAUC of plasma glucose level” value was determined as 6087 min^− mg/dl. Also, in the series on Male Wistar rats, the “Plasma glucose level, 0 min” value amounted to 97 ± 9 mg/dL; the “action to suppress the increase” value is listed as “scarcely suppressed”; the “Plasma glucose level, 30 min” value is 135 ± 20 mg/dL; the “Plasma glucose level, 60 min” value worked out at 129 ± 22 mg/dL. In the series on Male Wistar rats, the “Plasma glucose level, 90 min” value was 128 ± 22 mg/dL; the “Plasma glucose level, 120 min” value was 119 ± 15 mg/dL; the “ΔAUC of plasma glucose level” value was determined as 3370 min^− mg/dl. Besides, at sucrase, the “Plasma glucose level, 0 min” value was found to be 93 mg/dL; the “Plasma glucose level, 30 min” value is reported as 139 ± 21 ab mg/dl; the “Plasma glucose level, 60 min” value was 142 ± 21 ab mg/dl; the “Plasma glucose level, 90 min” value was 139 ± 14 ab mg/dl. In addition, at sucrase, the “Plasma glucose level, 120 min” value stood at 142 ± 18 mg/dL and the “ΔAUC of plasma glucose level” value is 4978 min^− mg/dl.
